Test results reported in US20170156324A1 (Dow AgroSciences LLC, priority 2015, published 2017).
Several values for one entry are separate records, joined by “and”; a condition that tells them apart may be missing. Identical values can stand only once.

Tests used:
Format in all cases: in vivo
[1] = test system: Stellaria media (L.) Vill. (common chickweed, STEME); assay: Field trial, post-emergence % visual weed control, STEME
Source text: (§1) Except for the trials utilizing the OD formulations, Actirob B was applied at 0.5 or 1.0 liters per hectare (L/ha), or Polyglycol 26-2 was applied at 0.5 to 1.0 L/ha in all respective single and tankmixture treatments being evaluated.
(§2) Trials were established as randomized complete blocks (RCBD) with three to four replicates. Individual treatments were 2-2.5 meters (m) wide and 6-20 m long. An untreated control was included in each trial. All trial sites had naturally occurring populations of weeds.
(§3) Herbicides were applied with backpack or bicycle sprayers using compressed air, nitrogen (N2) or carbon dioxide (CO2) as a propellant. All sprayers delivered a uniform spray pattern that provided thorough coverage of the foliage using a water volume of 150-300 L/ha. All herbicides were applied post-emergence in the spring to early-summer At the time of herbicide applications, winter wheat crops were at the six-leaf to three-tiller stage. Broadleaf and grass weeds were at a similar stage of growth at the time of herbicide application, typically from five leaf to 3 tiller depending on the weed species and time of year.
(§4) The treated plots and control plots were rated blind at various intervals after application. […] The control of the target weeds was visually assessed as percent control, compared to an untreated control plot. The assessments were based on a percent visual reduction in pest plant biomass and/or stand reduction of weed population.
(§5) The efficacy of all treatments was assessed at 13-22 days after application (DAA) for an early season rating, 23-39 DAA for a mid-season rating, and 41-84 DAA for a late-season rating. The data were statistically analyzed using various statistical methods, generally including a Tukey's HSD Factorial Analysis of Variance with a significance level of 5%.
(§6) Colby's equation was used to determine the herbicidal effects expected from the mixtures (Colby, S. R. Calculation of the synergistic and antagonistic response of herbicide combinations. Weeds 1967, 15, 20-22). A t-test (alpha=0.05) between Colby predictions and observed combinations was used to test for significant differences indicating synergy or antagonism using replicate data.
(§7) Expected=A+B+C−(AB+AC+BC)/100+(ABC)/10,000

[2] = test system: Alopecurus myosuroides Huds. (blackgrass, ALOMY); assay: Field trial, post-emergence % visual weed control, ALOMY; settings: 15DAA
Source text: as §1, §2, §3, §4, §5
(§8) Colby's equation was used to determine the herbicidal effects expected from the mixtures (Colby, S. R. Calculation of the synergistic and antagonistic response of herbicide combinations. Weeds 1967, 15, 20-22). […]

[3] = test system: Solanum nigrum L. (black nightshade, SOLNI); assay: Field trial, post-emergence % visual weed control, SOLNI
Source text: as §1, §2, §3, §4, §5, §6, §7

[4] = test system: Viola arvensis Murr. (field violet, VIOAR); assay: Field trial, post-emergence % visual weed control, VIOAR
Source text: as §1, §2, §3, §4, §5, §6, §7

[5] = test system: Agropyron repens L. (quackgrass, AGRRE); assay: Field trial, post-emergence % visual weed control, AGRRE; settings: 14DAA
Source text: as §1, §2, §3, §4, §5, §8

[6] = test system: Lamium purpureum L. (purple deadnettle, LAMPU); assay: Field trial, post-emergence % visual weed control, LAMPU
Source text: as §1, §2, §3, §4, §5, §6, §7

[7] = test system: Apera spica-venti (L.) Beauv. (windgrass, APESV); assay: Field trial, post-emergence % visual weed control, APESV
Source text: as §1, §2, §3, §4, §5, §6, §7

[8] = test system: Galium aparine L. (catchweed bedstraw, GALAP); assay: Field trial, post-emergence % visual weed control, GALAP; settings: 28DAA
Source text: as §1, §2, §3, §4, §5, §8

[9] = test system: Consolida regalis S. F. Gray (branching larkspur, CNSRE); assay: Field trial, post-emergence % visual weed control, CNSRE
Source text: as §1, §2, §3, §4, §5, §6, §7

[10] = test system: Echinochloa crus-galli (L.) P. Beauv. (barnyardgrass, ECHCG); assay: Field trial, post-emergence % visual weed control, ECHCG
Source text: as §1, §2, §3, §4, §5, §6, §7

[11] = test system: Centaurea cyanus (cornflower, CENCY); assay: Field trial, post-emergence % visual weed control, CENCY
Source text: as §1, §2, §3, §4, §5, §6, §7

[12] = test system: Matricaria recutita L. (wild chamomile, MATCH); assay: Field trial, post-emergence % visual weed control, MATCH
Source text: as §1, §2, §3, §4, §5, §6, §7

[13] = test system: Matricaria inodora (scentless mayweed, MATIN); assay: Field trial, post-emergence % visual weed control, MATIN; settings: 14DAA
Source text: as §1, §2, §3, §4, §5, §6, §7

Avena sp. (oats, AVESS) = assay: Field trial, post-emergence % visual weed control, AVESS; settings: 76DAA, 18.75 g ai/ha
Source text: as §1, §2
(§9) Herbicides were applied with backpack or bicycle sprayers using compressed air, nitrogen (N2) or carbon dioxide (CO2) as a propellant. All sprayers delivered a uniform spray pattern that provided thorough coverage of the foliage using a water volume of 150-300 L/ha. […]
(§10) The treated plots and control plots were rated blind at various intervals after application. […] The control of the target weeds was visually assessed as percent control, compared to an untreated control plot. […]
as §5, with “5%. […]” for “5%.”

[14] = test system: Lolium L. sp. (ryegrass, LOLSS); assay: Field trial, post-emergence % visual weed control, LOLSS; settings: 14DAA, 18.75 g ai/ha
Source text: as §1, §2, §9, §10
as §5, with “5%. […]” for “5%.”

[15] = test system: Lolium multiflorum Lam. (Italian ryegrass, LOLMU); assay: Field trial, post-emergence % visual weed control, LOLMU; settings: 22.5 g ai/ha
Source text: as §1, §2, §9, §10
as §5, with “5%. […]” for “5%.”

[16] = test system: Avena macrocarpa Moench (wild red oat, AVEST); assay: Field trial, post-emergence % visual weed control, AVEST; settings: 32DAA, 18.75 g ai/ha
Source text: as §1, §2, §9, §10
as §5, with “5%. […]” for “5%.”

[17] = test system: Lolium rigidum (rigid ryegrass, LOLRI); assay: Field trial, post-emergence % visual weed control, LOLRI; settings: 28DAA, 22.5 g ai/ha
Source text: as §1, §2, §9, §10
as §5, with “5%. […]” for “5%.”

[18] = test system: Papaver rhoeas L. (common poppy, PAPRH); assay: Field trial, post-emergence % visual weed control, PAPRH; settings: 56DAA, 22.5 g ai/ha
Source text: as §1, §2, §9, §10
as §5, with “5%. […]” for “5%.”

COC(=O)c1nc(-c2ccc(Cl)c(OC)c2F)cc(N)c1Cl [Halauxifen-Methyl, methyl 4-amino-3-chloro-6-(4-chloro-2-fluoro-3-methoxyphenyl)pyridine-2-carboxylate]
Mean % Weed Control ([1]; 15DAA, 4.8 g ae/ha): 0.0% | Mean % Weed Control ([1]; 15DAA, 6 g ae/ha): 0.0% | Mean % Weed Control ([1]; 61DAA, 4.8 g ae/ha): 0.0% | Mean % Weed Control ([1]; 61DAA, 6 g ae/ha): 1.3% and 3.2% | Mean % Weed Control ([1]; 78DAA, 4.8 g ae/ha): 6.3% | Mean % Weed Control ([1]; 78DAA, 6 g ae/ha): 8.8% | Mean % Weed Control ([2]; 4 g ae/ha): 0.0% | Mean % Weed Control ([3]; 29DAA, 3 g ae/ha): 10.0% | Mean % Weed Control ([3]; 56DAA, 3 g ae/ha): 0.0% | Mean % Weed Control ([4]; 14DAA, 3 g ae/ha): 0.0% | Mean % Weed Control ([4]; 14DAA, 4 g ae/ha): 0.0% | Mean % Weed Control ([4]; 56DAA, 3 g ae/ha): 0.0% | Mean % Weed Control ([5]; 3 g ae/ha): 0.0% | Mean % Weed Control ([6]; 15DAA, 4.8 g ae/ha): 72.5% | Mean % Weed Control ([6]; 15DAA, 6 g ae/ha): 55.0% | Mean % Weed Control ([7]; 14DAA, 3 g ae/ha): 0.0% | Mean % Weed Control ([7]; 14DAA, 4 g ae/ha): 0.0% | Mean % Weed Control ([7]; 28DAA, 3 g ae/ha): 0.0% | Mean % Weed Control ([7]; 28DAA, 4 g ae/ha): 0.0% | Mean % Weed Control ([7]; 56DAA, 3 g ae/ha): 0.0% | Mean % Weed Control ([8]; 3 g ae/ha): 0.0% | Mean % Weed Control ([9]; 31DAA, 3 g ae/ha): 68.3% | Mean % Weed Control ([9]; 31DAA, 4 g ae/ha): 70.8% | Mean % Weed Control ([9]; 53DAA, 3 g ae/ha): 70.0% | Mean % Weed Control ([9]; 53DAA, 4 g ae/ha): 72.0% | Mean % Weed Control ([9]; 84DAA, 3 g ae/ha): 70.0% | Mean % Weed Control ([9]; 84DAA, 4 g ae/ha): 72.5% | Mean % Weed Control ([10]; 14DAA, 3 g ae/ha): 0.0% | Mean % Weed Control ([10]; 29DAA, 3 g ae/ha): 0.0% | Mean % Weed Control ([10]; 56DAA, 3 g ae/ha): 0.0% | Mean % Weed Control ([11]; 28DAA, 3 g ae/ha): 75.0% | Mean % Weed Control ([11]; 77DAA, 3 g ae/ha): 82.5% | Mean % Weed Control ([11]; 84DAA, 3 g ae/ha): 1.3% | Mean % Weed Control ([11]; 84DAA, 4 g ae/ha): 27.5% | Mean % Weed Control ([12]; 15DAA, 4.8 g ae/ha): 0.0% | Mean % Weed Control ([12]; 61DAA, 4.8 g ae/ha): 0.0% | Mean % Weed Control ([12]; 61DAA, 6 g ae/ha): 1.3% and 3.2% | Mean % Weed Control ([12]; 78DAA, 4.8 g ae/ha): 6.3% | Mean % Weed Control ([12]; 78DAA, 6 g ae/ha): 6.3% | Mean % Weed Control ([13]; 3 g ae/ha): 0.0% | Mean % Weed Control ([13]; 4 g ae/ha): 0.0%

COc1cc(OC)n2nc(NS(=O)(=O)c3c(C(F)(F)F)ccnc3OC)nc2n1 [Pyroxsulam, N-(5,7-dimethoxy[1,2,4]triazolo[1,5-a]pyrimidin-2-yl)-2-methoxy-4-(trifluoromethyl)-pyridine-3-sulfonamide]
Mean % Weed Control (Avena sp. (oats, AVESS)): 62.0% | Mean % Weed Control ([1]; 15DAA, 9.6 g ai/ha): 0.0% | Mean % Weed Control ([1]; 15DAA, 12 g ai/ha): 0.0% | Mean % Weed Control ([1]; 61DAA, 9.6 g ai/ha): 5.0% and 11.1% | Mean % Weed Control ([1]; 61DAA, 12 g ai/ha): 3.8% and 9.7% | Mean % Weed Control ([1]; 78DAA, 9.6 g ai/ha): 16.3% | Mean % Weed Control ([1]; 78DAA, 12 g ai/ha): 13.8% | Mean % Weed Control ([2]; 12 g ai/ha): 27.5% | Mean % Weed Control ([3]; 29DAA, 18.75 g ai/ha): 50.0% | Mean % Weed Control ([3]; 56DAA, 18.75 g ai/ha): 30.0% | Mean % Weed Control [14]: 90.0% | Mean % Weed Control ([4]; 14DAA, 12 g ai/ha): 61.3% | Mean % Weed Control ([4]; 56DAA, 12 g ai/ha): 93.8% | Mean % Weed Control ([5]; 12 g ai/ha): 37.5% | Mean % Weed Control ([6]; 15DAA, 9.6 g ai/ha): 16.3% | Mean % Weed Control ([6]; 15DAA, 12 g ai/ha): 10.0% | Mean % Weed Control ([6]; 32DAA, 9.6 g ai/ha): 0.0% | Mean % Weed Control ([15]; 28DAA): 72.5% | Mean % Weed Control ([15]; 55DAA): 72.5% | Mean % Weed Control ([7]; 14DAA, 12 g ai/ha): 72.5% | Mean % Weed Control ([7]; 28DAA, 12 g ai/ha): 88.8% | Mean % Weed Control ([7]; 56DAA, 12 g ai/ha): 94.5% | Mean % Weed Control ([8]; 12 g ai/ha): 89.5% | Mean % Weed Control [16]: 97.8% | Mean % Weed Control [17]: 72.5% | Mean % Weed Control ([9]; 31DAA, 12 g ai/ha): 66.8% | Mean % Weed Control ([9]; 53DAA, 12 g ai/ha): 70.0% | Mean % Weed Control ([9]; 84DAA, 12 g ai/ha): 70% | Mean % Weed Control [18]: 1.9% | Mean % Weed Control ([10]; 14DAA, 18.75 g ai/ha): 85.0% | Mean % Weed Control ([10]; 29DAA, 18.75 g ai/ha): 75.0% | Mean % Weed Control ([10]; 56DAA, 18.75 g ai/ha): 60.0% | Mean % Weed Control ([11]; 28DAA, 12 g ai/ha): 38.8% | Mean % Weed Control ([11]; 77DAA, 12 g ai/ha): 15.0% | Mean % Weed Control ([11]; 84DAA, 12 g ai/ha): 12.5% | Mean % Weed Control ([12]; 15DAA, 9.6 g ai/ha): 12.8% | Mean % Weed Control ([12]; 61DAA, 9.6 g ai/ha): 16.3% and 23.7% | Mean % Weed Control ([12]; 61DAA, 12 g ai/ha): 20.0% and 26.3% | Mean % Weed Control ([12]; 78DAA, 9.6 g ai/ha): 17.0% | Mean % Weed Control ([12]; 78DAA, 12 g ai/ha): 18.8% | Mean % Weed Control ([13]; 12 g ai/ha): 20.0%
